{"source": "patent US7754768B2", "about": "“Methods and compositions for modulating alpha adrenergic receptor activity” (Allergan, Inc., priority 2000, dated 2010)", "key": {"[1]": {"tested_on": "rat spinal nerve ligation allodynia model", "assay": "Rat spinal nerve ligation allodynia model (chronic pain, von Frey tactile allodynia)", "assay_type": "in vivo", "settings": "30 minutes after administration", "experimental": "(§1) The physiological activity of these compounds was tested using four models: a rat locomotor model to assess sedation, an assay of cardiovascular activity in monkeys, a rat thermal paw withdrawal assay (Dirig et al., J. Neurosci. Methods 76:183-191 (1997) to test the alleviation of acute pain, and the rat spinal nerve ligation allodynia model (Kim and Chung, Pain 50:355-363 (1992) to assess the alleviation of neuropathic pain and central sensitization typical of chronic pain. As is known to those of skill in the art, these tests are established pharmacological methods for determining sedation, cardiovascular effects, acute pain and chronic pain, respectively, of pharmaceutical agents.\nA model for chronic pain (in particular peripheral neuropathy such as causalgia) involves the surgical ligation of the L5 (and optionally the L6) spinal nerves on one side in experimental animals. Rats recovering from the surgery gain weight and display a level of general activity similar to that of normal rats. However, these rats develop abnormalities of the foot, wherein the hindpaw is moderately everted and the toes are held together. More importantly, the hindpaw on the side affected by the surgery appears to become sensitive to pain from low-threshold mechanical stimuli, such as that producing a faint sensation of touch in a human, within about 1 week following surgery. This sensitivity to normally non-painful touch is called “tactile allodynia” and lasts for at least two months. The response includes lifting the affected hindpaw to escape from the stimulus, licking the paw and holding it in the air for many seconds. None of these responses is normally seen in the control group.\nRats are anesthetized before surgery. The surgical site is shaved and prepared either with betadine or Novacaine. Incision is made from the thoracic vertebra X111 down toward the sacrum. Muscle tissue is separated from the spinal vertebra (left side) at the L4-S2 levels. The L6 vertebra is located and the transverse process is carefully removed with a small rongeur to expose the L4-L6 spinal nerves. The L5 and L6 spinal nerves are isolated and tightly ligated with 6-0 silk thread. The same procedure is done on the right side as a control, except no ligation of the spinal nerves is performed.\nA complete hemostasis is confirmed, then the wounds are sutured. A small amount of antibiotic ointment is applied to the incised area, and the rat is transferred to the recovery plastic cage under a regulated heat-temperature lamp. […]\nTactile allodynia is measured prior to and 30 minutes after drug administration using von Frey hairs that are a series of fine hairs with incremental differences in stiffness. […] The applied force has been calculated to range from 0.41 to 15.1 grams. […]"}, "[2]": {"tested_on": "allodynia resulting from shingles", "assay": "Treatment of allodynia resulting from shingles in a patient", "assay_type": "in vivo, human", "settings": "oral capsule as needed, after two days' treatment, one patient", "source_text": "A person in generally good physical condition suffers from serious pain to their upper body due caused by contact of their skin with their clothing. The patient is unable to wear clothing on their upper body without severe pain. […] The patient is given a therapeutically effective oral dose of FORMULA 3 in capsule form as needed for the treatment of pain. […] Same facts as in Example 5, except the patient is given a therapeutically effective oral dose of FORMULA 2 in capsule form as needed for the treatment of pain."}, "[3]": {"tested_on": "male Sprague-Dawley rats", "assay": "Rat locomotor model to assess sedation (exploratory activity)", "assay_type": "in vivo", "settings": "30 minutes after injection, versus vehicle controls", "experimental": "as §1\nTo test sedation, six male Sprague-Dawley rats were given up to 3 mg/kg of each compound in a saline or DMSO vehicle by intraperitoneal injection (i.p.). Sedation was graded 30 minutes following administration of the drug by monitoring locomotor skills as follows.\nThe Sprague-Dawley rats are weighed and 1 ml/kg body weight of an appropriate concentration (ie. 3 mg/ml for a final dose of 3 mg/kg) drug solution is injected intraperitoneally. FORMULA 3 is formulated in approximately 10% DMSO and FORMULA 2 and FORMULA 4 are formulated in 50% DMSO. The results are compared to 29 historical controls that were injected with 1 ml/kg saline or 50% DMSO. Rat activity is then determined 30 minutes after injection of the drug solution. Rats are placed in a dark covered chamber and a digicom analyzer (Omnitech Electronic) quantitates their exploratory behavior for a five-minute period. The machine records each time the rat interrupts an array of 32 photoelectric beams in the X and Y orientation.\nFORMULA 2 and FORMULA 3 were tested at 1 mg/kg and FORMULA 4 was tested at 3 mg/kg. Thus, the compounds are not sedating."}, "[4]": {"tested_on": "visceral pain", "assay": "Treatment of visceral pain in a colon cancer patient", "assay_type": "in vivo, human", "settings": "intravenous infusion twice daily, after two days, one patient", "source_text": "A patient suffering from colon cancer and undergoing chemotherapy experiences severe visceral pain associated with this primary condition. Treatment of this pain with opiates has been ineffective to provide substantial relief. The patient is given a therapeutic amount of FORMULA 3 by intravenous infusion in a pharmaceutically acceptable vehicle. The treatment is given twice daily. […] Under the same facts as Example 7, except the patient is given FORMULA 2 instead of FORMULA 3."}, "[5]": {"tested_on": "African Green monkeys made glaucomatous", "assay": "Intraocular pressure in glaucomatous African Green monkeys after oral dosing", "assay_type": "in vivo, African Green monkey", "experimental": "African Green monkeys are made glaucomatous and divided into three groups. Ocular hypertension is measured before the administration of any drug, then one of each group of animals is given an oral dose of either a) glucose (negative control); b) a formulation of FORMULA 2 at a dosage of either 2 mg/kg or 7 mg/kg, or c) Diamox® (acetazolamide; a carbonic anhydrase inhibitor used for treatment of glaucoma) (positive control) at a concentration of 20 mg/kg. Intraocular pressure is measured at 0, 6, 12, and 24 hours following administration of each formulation."}}, "data": [{"smiles": "OCCNC(=S)NCc1ccc(F)cc1", "note": "[FORMULA 3]", "values": [{"measurement": "Reduction of the response to tactile stimuli that indicate tactile allodynia (analgesic in chronic pain model)", "setting": "[1]", "result": "analgesic in a model of chronic pain"}, {"measurement": "Patient-reported allodynia resulting from shingles", "setting": "[2]", "result": "markedly reduced"}, {"measurement": "Sedation: reduction in the exploratory activity of the rats", "setting": "[3]; 1 mg/kg i.p.", "result": "not sedating"}, {"measurement": "Patient-reported visceral pain", "setting": "[4]", "result": "significant alleviation"}]}, {"smiles": "CC(=O)Nc1nnc(S(N)(=O)=O)s1", "note": "[Diamox ®, acetazolamide, reference compound]", "values": [{"measurement": "Change in Intraocular Pressure (%)", "setting": "[5]; oral 20 mg/kg (positive control), 0 hours", "result": 0, "unit": "%"}, {"measurement": "Change in Intraocular Pressure (%)", "setting": "[5]; oral 20 mg/kg (positive control), 6 hours", "result": "−38", "unit": "%"}, {"measurement": "Change in Intraocular Pressure (%)", "setting": "[5]; oral 20 mg/kg (positive control), 12 hours", "result": "−41", "unit": "%"}, {"measurement": "Change in Intraocular Pressure (%)", "setting": "[5]; oral 20 mg/kg (positive control), 24 hours", "result": "−18", "unit": "%"}]}, {"smiles": "OCCNC(=S)NCc1ccc(F)cc1", "note": "[AGN196204]", "values": [{"measurement": "Reduction of the response to tactile stimuli that indicate tactile allodynia (analgesic in chronic pain model)", "setting": "[1]", "result": "able to reduce the response to the tactile stimuli"}]}, {"smiles": "OCCNC(=S)NCc1ccccc1F", "note": "[FORMULA 4, reference compound]", "values": [{"measurement": "Analgesic activity (tactile allodynia)", "setting": "[1]; i.p. doses up to 3 mg/kg", "result": "no analgesic activity"}, {"measurement": "Sedation: reduction in the exploratory activity of the rats", "setting": "[3]; 3 mg/kg i.p.", "result": "not sedating"}]}, {"smiles": "OCCNC(=S)NCc1cccc(Cl)c1F", "note": "[FORMULA 2, 1-(3-chloro-2-fluorobenzyl)-3-(2-hydroxyethyl)-thiourea]", "values": [{"measurement": "Reduction of the response to tactile stimuli that indicate tactile allodynia (analgesic in chronic pain model)", "setting": "[1]", "result": "able to reduce the response to the tactile stimuli"}, {"measurement": "Patient-reported allodynia resulting from shingles", "setting": "[2]", "result": "markedly reduced"}, {"measurement": "Change in Intraocular Pressure (%)", "setting": "[5]; oral 2 mg/kg, 0 hours", "result": 0, "unit": "%"}, {"measurement": "Change in Intraocular Pressure (%)", "setting": "[5]; oral 2 mg/kg, 6 hours", "result": "−18", "unit": "%"}, {"measurement": "Change in Intraocular Pressure (%)", "setting": "[5]; oral 2 mg/kg, 12 hours", "result": "−32", "unit": "%"}, {"measurement": "Change in Intraocular Pressure (%)", "setting": "[5]; oral 2 mg/kg, 24 hours", "result": "−3", "unit": "%"}, {"measurement": "Change in Intraocular Pressure (%)", "setting": "[5]; oral 7 mg/kg, 0 hours", "result": 0, "unit": "%"}, {"measurement": "Change in Intraocular Pressure (%)", "setting": "[5]; oral 7 mg/kg, 6 hours", "result": "−22", "unit": "%"}, {"measurement": "Change in Intraocular Pressure (%)", "setting": "[5]; oral 7 mg/kg, 12 hours", "result": "−26", "unit": "%"}, {"measurement": "Change in Intraocular Pressure (%)", "setting": "[5]; oral 7 mg/kg, 24 hours", "result": "−15", "unit": "%"}, {"measurement": "Sedation: reduction in the exploratory activity of the rats", "setting": "[3]; 1 mg/kg i.p.", "result": "not sedating"}, {"measurement": "Patient-reported visceral pain", "setting": "[4]", "result": "significant alleviation"}]}]}
